Data as given in patent US20160009693A1, “HERBICIDAL COMPOUNDS” (SYNGENTA LIMITED, priority 2013, published 2016).

Tests used:
Format in all cases: in vivo
Conditions in all cases: applied at 1000 g/h, evaluated after 13 days
[1] = test system: Amaranthus retoflexus (AMARE); experiment: Herbicidal glasshouse test, pre-emergence, AMARE
Procedure, shortened: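 Amaranthus retoflexus seeds were sown in pots of standard soil and kept one day in a glasshouse at 24/16° C. (day/night), 14 hours light and 65% humidity. They were then sprayed pre-emergence with the active ingredient in acetone/water (50:50) containing 0.5% Tween 20. Plants grew under the same conditions, watered twice daily, and percentage damage was scored after 13 days.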

[2] = test system: Solanum nigrum (SOLNI); experiment: Herbicidal glasshouse test, post-emergence, SOLNI
[3] = test system: Echinochloa crus-galli (ECHCG); experiment: Herbicidal glasshouse test, pre-emergence, ECHCG
Procedure, shortened: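 Echinochloa crus-galli seeds were sown in standard soil in pots and grown for one day in a glasshouse at 24/16° C. day/night, 14 hours light and 65% humidity. Pre-emergence spraying used an aqueous solution of the active ingredient in acetone/water (50:50) with 0.5% Tween 20. Damage was scored after 13 days on a five point scale.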

[4] = test system: Ipomoea hederacea (IPOHE); experiment: Herbicidal glasshouse test, post-emergence, IPOHE
[5] = test system: Amaranthus retoflexus (AMARE); experiment: Herbicidal glasshouse test, post-emergence, AMARE
Procedure, shortened: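 Amaranthus retoflexus (AMARE) seeds were sown in pots of standard soil and grown in a glasshouse at 24/16° C. day/night, 14 hours light and 65% humidity for 8 days. The plants were then sprayed post-emergence with an aqueous solution of the active ingredient in acetone/water (50:50) with 0.5% Tween 20. Damage was scored after 13 days.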

[6] = test system: Alopecurus myosuroides (ALOMY); experiment: Herbicidal glasshouse test, post-emergence, ALOMY
[7] = test system: Setaria faberi (SETFA); experiment: Herbicidal glasshouse test, post-emergence, SETFA
Procedure, shortened: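 Setaria faberi seeds were sown in standard soil in pots and grown for 8 days in a glasshouse at 24/16° C. day/night, 14 hours light and 65% humidity. The seedlings were then sprayed post-emergence with the active ingredient in acetone/water (50:50) containing 0.5% Tween 20. Afterwards they were kept under the same conditions, watered twice daily, and scored for percentage damage on a five point scale.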

[8] = test system: Setaria faberi (SETFA); experiment: Herbicidal glasshouse test, pre-emergence, SETFA
[9] = test system: Solanum nigrum (SOLNI); experiment: Herbicidal glasshouse test, pre-emergence, SOLNI
Procedure, shortened: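 Seeds of Solanum nigrum were sown in pots of standard soil and kept one day in a glasshouse at 24/16° C. day/night, 14 hours light and 65% humidity. For the pre-emergence treatment they were then sprayed with an aqueous solution of the active ingredient formulated in acetone/water (50:50) containing 0.5% Tween 20. Plant damage was rated after 13 days.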

[10] = test system: Echinochloa crus-galli (ECHCG); experiment: Herbicidal glasshouse test, post-emergence, ECHCG
Procedure, shortened: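 Echinochloa crus-galli (ECHCG) seeds were sown in standard soil in pots and grown for 8 days in a glasshouse at 24/16° C. day/night, 14 hours light and 65% humidity. The young plants were then sprayed post-emergence with the active ingredient in acetone / water (50:50) containing 0.5% Tween 20. Damage was scored after 13 days.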

[11] = test system: Ipomoea hederacea (IPOHE); experiment: Herbicidal glasshouse test, pre-emergence, IPOHE
[12] = test system: Alopecurus myosuroides (ALOMY); experiment: Herbicidal glasshouse test, pre-emergence, ALOMY

Compound	PRE Application AMARE, percentage damage (five point scale) [1]	POST Application SOLNI, percentage damage (five point scale) [2]	PRE Application ECHCG, percentage damage (five point scale) [3]	POST Application IPOHE, percentage damage (five point scale) [4]	POST Application AMARE, percentage damage (five point scale) [5]	POST Application ALOMY, percentage damage (five point scale) [6]	POST Application SETFA, percentage damage (five point scale) [7]	PRE Application SETFA, percentage damage (five point scale) [8]	PRE Application SOLNI, percentage damage (five point scale) [9]	POST Application ECHCG, percentage damage (five point scale) [10]	PRE Application IPOHE, percentage damage (five point scale) [11]	PRE Application ALOMY, percentage damage (five point scale) [12]
Cn1nnnc1NC(=O)c1nn(C)c(=O)n(Cc2ccc(SC(F)(F)F)cc2)c1=O [Compound 1.080]	5 (5=80-100%)	5 (5=80-100%)	5 (5=80-100%)	5 (5=80-100%)	5 (5=80-100%)	5 (5=80-100%)	5 (5=80-100%)	5 (5=80-100%)	5 (5=80-100%)	4 (4=60-79%)	5 (5=80-100%)	5 (5=80-100%)
COc1ccc([N+](=O)[O-])cc1Cn1c(=O)c(C(=O)Nc2nnnn2C)nn(C)c1=O [Compound 1.081]	5 (5=80-100%)	5 (5=80-100%)	5 (5=80-100%)	5 (5=80-100%)	5 (5=80-100%)	5 (5=80-100%)	4 (4=60-79%)	2 (2=20-39%)	5 (5=80-100%)	4 (4=60-79%)	5 (5=80-100%)	5 (5=80-100%)
Cn1nnnc1NC(=O)c1nn(C)c(=O)n(Cc2ccccc2Br)c1=O [Compound 1.082]	5 (5=80-100%)	5 (5=80-100%)	5 (5=80-100%)	5 (5=80-100%)	5 (5=80-100%)	5 (5=80-100%)	2 (2=20-39%)	3 (3=40-59%)	5 (5=80-100%)	5 (5=80-100%)	5 (5=80-100%)	5 (5=80-100%)
Cn1nnnc1NC(=O)c1nn(C)c(=O)n(Cc2ccccc2C#N)c1=O [Compound 1.083]	5 (5=80-100%)	5 (5=80-100%)	5 (5=80-100%)	5 (5=80-100%)	5 (5=80-100%)	5 (5=80-100%)	5 (5=80-100%)	5 (5=80-100%)	5 (5=80-100%)	5 (5=80-100%)	5 (5=80-100%)	5 (5=80-100%)
Cn1nnnc1NC(=O)c1nn(C)c(=O)n(Cc2cccc(Cl)c2)c1=O [Compound 1.084]	5 (5=80-100%)	5 (5=80-100%)	5 (5=80-100%)	5 (5=80-100%)	5 (5=80-100%)	5 (5=80-100%)	2 (2=20-39%)	2 (2=20-39%)	5 (5=80-100%)	5 (5=80-100%)	5 (5=80-100%)	5 (5=80-100%)
Cn1nnnc1NC(=O)c1nn(C)c(=O)n(Cc2cc(Cl)nc(Cl)c2)c1=O [Compound 1.085]	5 (5=80-100%)	5 (5=80-100%)	5 (5=80-100%)	5 (5=80-100%)	5 (5=80-100%)	5 (5=80-100%)	2 (2=20-39%)	2 (2=20-39%)	5 (5=80-100%)	5 (5=80-100%)	5 (5=80-100%)	5 (5=80-100%)
Cn1nnnc1NC(=O)c1nn(C)c(=O)n(Cc2ccc(C(F)F)cc2)c1=O [Compound 1.086]	5 (5=80-100%)	5 (5=80-100%)	5 (5=80-100%)	5 (5=80-100%)	5 (5=80-100%)	5 (5=80-100%)	2 (2=20-39%)	2 (2=20-39%)	5 (5=80-100%)	5 (5=80-100%)	5 (5=80-100%)	5 (5=80-100%)
CC(C)CCn1c(=O)c(C(=O)Nc2nnnn2C)nn(C)c1=O [Compound 1.087]	5 (5=80-100%)	5 (5=80-100%)	5 (5=80-100%)	5 (5=80-100%)	5 (5=80-100%)	5 (5=80-100%)	5 (5=80-100%)	5 (5=80-100%)	5 (5=80-100%)	5 (5=80-100%)	5 (5=80-100%)	5 (5=80-100%)
